Measured values as given in publication PMC5693604 (Cell chemical biology, 2017).

Legend:
Format in all cases: cell-based
CHEK2 [1] = target: T1, CHEK2 (Homo sapiens, UniProt O96017); assay: competitive gel-based ABPP with probe […] in HEK293T cells
[2] = target: T2, NT5DC1 (5'-Nucleotidase-Domain Containing 1) (Homo sapiens, UniProt Q5TFE4); assay: as above
T2 sequence (Q5TFE4 1-455): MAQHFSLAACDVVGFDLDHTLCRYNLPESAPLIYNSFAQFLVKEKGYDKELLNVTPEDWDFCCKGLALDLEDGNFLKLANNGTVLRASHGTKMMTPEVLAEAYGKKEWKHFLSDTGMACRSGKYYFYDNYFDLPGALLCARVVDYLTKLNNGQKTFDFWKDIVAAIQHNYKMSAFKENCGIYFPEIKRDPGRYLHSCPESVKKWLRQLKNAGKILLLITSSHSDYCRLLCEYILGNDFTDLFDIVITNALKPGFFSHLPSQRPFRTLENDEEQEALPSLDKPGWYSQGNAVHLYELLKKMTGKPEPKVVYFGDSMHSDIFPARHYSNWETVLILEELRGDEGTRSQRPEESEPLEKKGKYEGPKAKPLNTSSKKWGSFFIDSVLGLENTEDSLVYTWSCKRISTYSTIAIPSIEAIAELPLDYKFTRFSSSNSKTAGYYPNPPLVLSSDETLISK

CHEK2 [3] = target: T1, CHEK2; assay: FRET Z'-LYTE kinase assay

T1 sequence (O96017 whole entry): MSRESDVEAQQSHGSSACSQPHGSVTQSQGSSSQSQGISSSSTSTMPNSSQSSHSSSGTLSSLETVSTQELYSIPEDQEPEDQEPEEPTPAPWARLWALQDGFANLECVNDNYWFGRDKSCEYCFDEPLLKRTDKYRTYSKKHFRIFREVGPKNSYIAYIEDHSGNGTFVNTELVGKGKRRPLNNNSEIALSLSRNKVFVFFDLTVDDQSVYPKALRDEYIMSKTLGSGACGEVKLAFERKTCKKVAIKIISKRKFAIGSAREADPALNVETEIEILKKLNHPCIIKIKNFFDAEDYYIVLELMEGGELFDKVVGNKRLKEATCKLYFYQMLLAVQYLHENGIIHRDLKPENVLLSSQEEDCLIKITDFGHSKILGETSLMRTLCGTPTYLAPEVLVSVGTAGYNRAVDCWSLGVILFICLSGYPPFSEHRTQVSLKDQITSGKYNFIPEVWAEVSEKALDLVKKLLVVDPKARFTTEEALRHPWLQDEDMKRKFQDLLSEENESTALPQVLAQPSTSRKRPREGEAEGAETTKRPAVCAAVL

Row | IC50 (CHEK2 [1]) | Structure (SMILES) | IC50 [2] | IC50 (CHEK2 [3])
1 | ~4000 nM | C=CC(=O)N[C@@H]1CN(c2nc(Nc3cn(C)nc3OC)c3ncn(C)c3n2)C[C@H]1F [compound 2, N-((3R,4R)-4-Fluoro-1-(6-((3-methoxy-1-methyl-1H-pyrazol-4-yl)amino)-9-methyl-9H-purin-2-yl)pyrrolidine-3-yl)acrylamide] |  | 
2 |  | C=CC(=O)Nc1cccc(Nc2nc(Nc3ccc(N4CCN(C(C)=O)CC4)cc3OC)ncc2C(F)(F)F)c1 [compound 3, rociletinib] | ~360 nM | 350 nM
